PubChem BioAssay AID2060513 (Molecular Pharmacology Branch, DTP, NCI, 2025)

System: 299254-011-R-J1-PDC complex spheroids viability
Experiment: Anticancer human tumor 299254-011-R-J1-PDC patient-derived melanoma cell line growth inhibition [GQUAD]
Conditions: for IC50: curve of first compound; for viability, T/C: stronger effect = lower value; active = viability on the fitted dose curve at most 10% of control; inactive = the rest
Outline: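 Tumor cells were grown as complex spheroids with HUVEC endothelial cells and mesenchymal stem cells as stroma. G-quadruplex stabilizers were combined with targeted agents over half-log dilutions from near the clinical Cmax, or from 10 microM.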

[1] = second compound 0.0316 µM, first compound 0.0316 µM
[2] = second compound 0.0316 µM, first compound 0.1 µM
[3] = second compound 0.0316 µM, first compound 0.316 µM
[4] = second compound 0.0316 µM, first compound 1 µM
[5] = second compound 0.0316 µM, first compound 3.16 µM
[6] = second compound 0.0316 µM, first compound 10 µM
[7] = second compound 0.1 µM, first compound 0.0316 µM
[8] = second compound 0.1 µM, first compound 0.1 µM
[9] = second compound 0.1 µM, first compound 0.316 µM
[10] = second compound 0.1 µM, first compound 1 µM
[11] = second compound 0.1 µM, first compound 3.16 µM
[12] = second compound 0.1 µM, first compound 10 µM
[13] = second compound 0.316 µM, first compound 0.0316 µM
[14] = second compound 0.316 µM, first compound 0.1 µM
[15] = second compound 0.316 µM, first compound 0.316 µM
[16] = second compound 0.316 µM, first compound 1 µM
[17] = second compound 0.316 µM, first compound 3.16 µM
[18] = second compound 0.316 µM, first compound 10 µM
[19] = second compound 1 µM, first compound 0.0316 µM
[20] = second compound 1 µM, first compound 0.1 µM
[21] = second compound 1 µM, first compound 0.316 µM
[22] = second compound 1 µM, first compound 1 µM
[23] = second compound 1 µM, first compound 3.16 µM
[24] = second compound 1 µM, first compound 10 µM
[25] = second compound 3.16 µM, first compound 0.0316 µM
[26] = second compound 3.16 µM, first compound 0.1 µM
[27] = second compound 3.16 µM, first compound 0.316 µM
[28] = second compound 3.16 µM, first compound 1 µM
[29] = second compound 3.16 µM, first compound 3.16 µM
[30] = second compound 3.16 µM, first compound 10 µM
[31] = second compound 10 µM, first compound 0.0316 µM
[32] = second compound 10 µM, first compound 0.1 µM
[33] = second compound 10 µM, first compound 0.316 µM
[34] = second compound 10 µM, first compound 1 µM
[35] = second compound 10 µM, first compound 3.16 µM
[36] = second compound 10 µM, first compound 10 µM
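Also: spheroids exposed to the agents for seven days before readout.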
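For viability, T/C in this document: percent viability relative to DMSO vehicle control wells = 100%.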

CC(C)n1c(=O)n(C)c2cnc3cc(F)c(-c4ccc(OCCCN5CCCCC5)nc4)cc3c21 + Cc1[nH]c2ccc(F)cc2c1-c1nc2c3cccnc3c3ncccc3c2[nH]1
inactive: viability, T/C [1] 90.2% | viability, T/C [2] 94.3% | viability, T/C [3] 98.1% | viability, T/C [4] 75.2% | viability, T/C [5] 86.7% | viability, T/C [6] 54.3% | viability, T/C [7] 85.9% | viability, T/C [8] 103% | viability, T/C [9] 124% | viability, T/C [10] 96.5% | viability, T/C [11] 83.1% | viability, T/C [12] 58.3% | viability, T/C [13] 106% | viability, T/C [14] 98.8% | viability, T/C [15] 105% | viability, T/C [16] 94.2% | viability, T/C [17] 84.4% | viability, T/C [18] 52.4% | viability, T/C [19] 83% | viability, T/C [20] 97.7% | viability, T/C [21] 118% | viability, T/C [22] 115% | viability, T/C [23] 98.8% | viability, T/C [24] 58.1% | viability, T/C [25] 89.9% | viability, T/C [26] 107% | viability, T/C [27] 89.5% | viability, T/C [28] 111% | viability, T/C [29] 94.4% | viability, T/C [30] 56.9% | viability, T/C [31] 96.8% | viability, T/C [32] 107% | viability, T/C [33] 98% | viability, T/C [34] 84.8% | viability, T/C [35] 96.8% | viability, T/C [36] 49.5%
9860 nM: IC50 (second compound 10 µM)
> 10000 nM: IC50 (second compound 0.0316 µM) | IC50 (second compound 0.1 µM) | IC50 (second compound 0.316 µM) | IC50 (second compound 1 µM) | IC50 (second compound 3.16 µM)

CC1COCCN1c1cc(-c2ccnn2C)c2ccnc(-c3ccn[nH]3)c2n1 (stereo not drawn) + Cc1[nH]c2ccc(F)cc2c1-c1nc2c3cccnc3c3ncccc3c2[nH]1
inactive: viability, T/C [1] 111% | viability, T/C [2] 65% | viability, T/C [3] 36.1% | viability, T/C [4] 19.6% | viability, T/C [5] 21.5% | viability, T/C [6] 13.1% | viability, T/C [7] 80.3% | viability, T/C [8] 70.3% | viability, T/C [9] 29.1% | viability, T/C [10] 21.6% | viability, T/C [11] 17% | viability, T/C [12] 12.9% | viability, T/C [13] 90% | viability, T/C [14] 88.4% | viability, T/C [15] 38.8% | viability, T/C [16] 22.4% | viability, T/C [17] 14.2% | viability, T/C [18] 15% | viability, T/C [19] 93.1% | viability, T/C [20] 70.4% | viability, T/C [21] 36.5% | viability, T/C [22] 21.9% | viability, T/C [23] 16.4% | viability, T/C [24] 17.4% | viability, T/C [25] 84.5% | viability, T/C [26] 71.8% | viability, T/C [27] 31.8% | viability, T/C [28] 14.5% | viability, T/C [29] 12.2% | viability, T/C [30] 15.2% | viability, T/C [31] 74.1% | viability, T/C [32] 47% | viability, T/C [33] 26.7% | viability, T/C [34] 17.4% | viability, T/C [35] 12.1% | viability, T/C [36] 15.4%
88.9 nM: IC50 (second compound 10 µM)
201 nM: IC50 (second compound 1 µM)
187 nM: IC50 (second compound 3.16 µM)
245 nM: IC50 (second compound 0.316 µM)
177 nM: IC50 (second compound 0.1 µM)
180 nM: IC50 (second compound 0.0316 µM)

CC1COCCN1c1cc(C2(O)CC3CCC(C2)O3)c2cnn(-c3ccn[nH]3)c2n1 (stereo not drawn) + Cc1[nH]c2ccc(F)cc2c1-c1nc2c3cccnc3c3ncccc3c2[nH]1
127 nM: IC50 (second compound 0.0316 µM)
178 nM: IC50 (second compound 0.316 µM)
inactive: viability, T/C [1] 83.2% | viability, T/C [2] 54.7% | viability, T/C [3] 31.3% | viability, T/C [4] 14.4% | viability, T/C [5] 12.2% | viability, T/C [7] 72.7% | viability, T/C [8] 60.4% | viability, T/C [9] 20.7% | viability, T/C [10] 14.7% | viability, T/C [11] 14.4% | viability, T/C [12] 7.02% | viability, T/C [13] 77.3% | viability, T/C [14] 76.6% | viability, T/C [15] 23.8% | viability, T/C [16] 19.6% | viability, T/C [17] 12.6% | viability, T/C [18] 7.48% | viability, T/C [19] 73.7% | viability, T/C [20] 55.8% | viability, T/C [21] 30.4% | viability, T/C [22] 22.1% | viability, T/C [23] 13.7% | viability, T/C [25] 84.5% | viability, T/C [26] 52.7% | viability, T/C [27] 22.5% | viability, T/C [28] 16% | viability, T/C [29] 14% | viability, T/C [30] 6.07% | viability, T/C [31] 73% | viability, T/C [32] 46.9% | viability, T/C [33] 21.8% | viability, T/C [34] 15.1%
135 nM: IC50 (second compound 0.1 µM)
125 nM: IC50 (second compound 1 µM)
83.8 nM: IC50 (second compound 10 µM)
active: viability, T/C [6] 8.75% | viability, T/C [24] 7.91% | viability, T/C [35] 9.33% | viability, T/C [36] 4.43%
109 nM: IC50 (second compound 3.16 µM)

Cn1ncnc1[C@H]1c2n[nH]c(=O)c3cc(F)cc(c23)N[C@@H]1c1ccc(F)cc1 + Cc1[nH]c2ccc(F)cc2c1-c1nc2c3cccnc3c3ncccc3c2[nH]1
> 316 nM: IC50 (second compound 0.0316 µM) | IC50 (second compound 0.1 µM) | IC50 (second compound 0.316 µM) | IC50 (second compound 1 µM) | IC50 (second compound 3.16 µM) | IC50 (second compound 10 µM)
inactive: viability, T/C (second compound 0.0316 µM, first compound 0.000999 µM) 93.7% | viability, T/C (second compound 0.0316 µM, first compound 0.00316 µM) 105% | viability, T/C (second compound 0.0316 µM, first compound 0.00999 µM) 117% | viability, T/C [1] 90.2% | viability, T/C (second compound 0.0316 µM, first compound 0.0999 µM) 88.3% | viability, T/C [3] 101% | viability, T/C (second compound 0.1 µM, first compound 0.000999 µM) 101% | viability, T/C (second compound 0.1 µM, first compound 0.00316 µM) 103% | viability, T/C (second compound 0.1 µM, first compound 0.00999 µM) 88.1% | viability, T/C [7] 92.7% | viability, T/C (second compound 0.1 µM, first compound 0.0999 µM) 118% | viability, T/C [9] 96.2% | viability, T/C (second compound 0.316 µM, first compound 0.000999 µM) 92.8% | viability, T/C (second compound 0.316 µM, first compound 0.00316 µM) 108% | viability, T/C (second compound 0.316 µM, first compound 0.00999 µM) 113% | viability, T/C [13] 94% | viability, T/C (second compound 0.316 µM, first compound 0.0999 µM) 98.2% | viability, T/C [15] 105% | viability, T/C (second compound 1 µM, first compound 0.000999 µM) 86.7% | viability, T/C (second compound 1 µM, first compound 0.00316 µM) 105% | viability, T/C (second compound 1 µM, first compound 0.00999 µM) 87.1% | viability, T/C [19] 112% | viability, T/C (second compound 1 µM, first compound 0.0999 µM) 112% | viability, T/C [21] 102% | viability, T/C (second compound 3.16 µM, first compound 0.000999 µM) 95.3% | viability, T/C (second compound 3.16 µM, first compound 0.00316 µM) 88.2% | viability, T/C (second compound 3.16 µM, first compound 0.00999 µM) 96.3% | viability, T/C [25] 84.6% | viability, T/C (second compound 3.16 µM, first compound 0.0999 µM) 88.6% | viability, T/C [27] 118% | viability, T/C (second compound 10 µM, first compound 0.000999 µM) 96.7% | viability, T/C (second compound 10 µM, first compound 0.00316 µM) 111% | viability, T/C (second compound 10 µM, first compound 0.00999 µM) 84% | viability, T/C [31] 95.7% | viability, T/C (second compound 10 µM, first compound 0.0999 µM) 108% | viability, T/C [33] 99.5%
